Data: PubChem BioAssay (NCI)
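Exposure lasted 48 hours, with cells grown in 96-well plates and compounds tested at five concentrations. TGI: concentration producing complete growth inhibition.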

Legend:
Assay in all cases: NCI tumour cell line growth inhibition, 48 h
TK-10 renal = tested on: TK-10 renal
U251 CNS = tested on: U251 CNS
HT29 colon = tested on: HT29 colon
PC-3 prostate = tested on: PC-3 prostate
HCT-15 colon = tested on: HCT-15 colon
SF-295 CNS = tested on: SF-295 CNS
OVCAR-5 ovarian = tested on: OVCAR-5 ovarian
SK-MEL-5 melanoma = tested on: SK-MEL-5 melanoma
K-562 leukemia = tested on: K-562 leukemia
HS 578T breast = tested on: HS 578T breast

SMILES | TGI (TK-10 renal) [µM] | TGI (U251 CNS) [µM] | TGI (HT29 colon) [µM] | TGI (PC-3 prostate) [µM] | TGI (HCT-15 colon) [µM] | TGI (SF-295 CNS) [µM] | TGI (OVCAR-5 ovarian) [µM] | TGI (SK-MEL-5 melanoma) [µM] | TGI (K-562 leukemia) [µM] | TGI (HS 578T breast) [µM]
COC(=O)c1cnc(Cl)cn1 | > 100 | > 100 | > 100 | > 100 | 38.5 | > 100 | > 100 | > 100 | > 100 | > 100
COc1ccc2cc(CN3CCC(C4CCNCC4)CC3)ccc2c1 | 21.3 | 3.74 | 2.65 | 28 | 6.44 | 3.5 | 20.4 | 3.1 | 3.22 | > 30.5
Cc1ccc(/C=N/Nc2ccc3ccccc3n2)s1 | > 100 | 67.6 | 44 | 31.5 | > 100 | 38.4 | > 100 | 30.7 | > 100 | > 100
CCOC(=O)C(NC(=O)c1ccccc1)(N1CCOCC1)C(F)(F)F (stereo unspecified) | > 100 | > 100 | > 100 | > 100 | > 100 | > 100 | > 100 | > 100 | > 100 | > 100
COc1ccc(N2C=Nn3c(nc4sc5c(c4c3=O)CCCC5)C2)cc1 | > 100 | > 100 | > 100 | > 100 | > 100 | 68 | > 100 | > 100 | > 100 | 9.6
COc1ccc(CN=C(N)N)c2ccccc12 | > 100 | 74.7 | > 100 | > 100 | > 100 | 36.7 | 73.4 | 38 |  | 54.9
O=C(CNc1ccccc1[N+](=O)[O-])Nn1c(-c2ccccc2)nc2ccccc2c1=O | > 10 | 40.6 | 33.7 | 61.5 | 44.3 | 46.5 | 41.3 | 22.1 | 41.9 | > 100
Cc1ccc(NC(=O)CSc2nc(=O)[nH]c3nc[nH]c23)cc1 | > 100 | > 100 | > 100 | > 100 | > 100 | > 100 | > 100 | > 100 | > 100 | > 100
CN(C)C(=O)OC(Cn1cncn1)(Cn1cncn1)c1ccc(Cl)cc1Cl | > 100 | > 100 | > 100 | > 100 | > 100 | > 100 | > 100 | > 100 | > 100 | > 100
CC(=O)OCC1OC(Oc2cc(C)c(O)cc2C/C=C(\C)CC/C=C(\C)CC(=O)CC(C)C)C(O)C(OC(C)=O)C1OC(C)=O (stereo unspecified) | 41.1 | 41.9 | 12.5 | > 50 | > 50 | > 50 | > 50 | 14.9 | 23.2 | 35.2
COc1ccc(OC)c(NS(=O)(=O)c2ccc3nc(C)n(NS(=O)(=O)c4cc(OC)ccc4OC)c(=O)c3c2)c1 | > 100 | > 100 | > 100 | > 100 | > 100 | > 100 | > 100 | > 100 | > 100 | > 100
CC(=O)OC1COC(Nc2nc(NCc3ccccc3)n(C)c(=O)c2N=O)C(OC(C)=O)C1OC(C)=O (stereo unspecified) | > 10 | > 10 | > 10 | > 10 | > 10 | > 10 | > 10 | > 10 | > 10 | > 10
O=C(O)/C(Cc1ccc([N+](=O)[O-])cc1)=N\O | > 100 | > 100 | > 100 | > 100 | > 100 | > 100 | > 100 | > 100 | > 100 | > 100
CN(/N=C/c1ccnc2ccccc12)c1ccc(Cl)cc1[N+](=O)[O-] | > 100 | > 100 | > 100 | > 100 | > 100 | > 100 | > 100 | > 100 | > 100 | 52.2
S=C(c1c[nH]c2ccccc12)N1CCN(Cc2ccccc2)CC1 | > 100 | 33.6 | 30.1 | 30.8 | 28.1 | 29 | 30.5 | 24.5 | > 100 | 34.6
Clc1ccc(C(SCc2ccccc2)SCc2ccccc2)cc1 | > 10 | > 10 | > 10 | > 10 | > 10 | > 10 |  | > 10 | > 10 | > 10
Cc1noc(NC2=CC(=O)C(=O)c3ccccc32)c1C | > 100 | > 100 | 88 | > 100 | > 100 | > 100 | > 100 | 3.75 | 0.872 | > 100
CN(c1ccccc1Cl)S(=O)(=O)c1ccc([N+](=O)[O-])cc1 | > 100 | > 100 | > 100 | > 100 | > 100 | > 100 | > 100 | > 100 | > 100 | > 100
COc1ccc(N2C(=O)C3c4[nH]c5ccc(F)cc5c4C4CCC(c5ccccc5)CC4C3C2=O)cc1 (stereo unspecified) | 70.1 | 27.1 | > 100 | 35.2 | > 100 | > 100 | 47.8 | 54.2 | 14.2 | 31.8
CC1=NN(c2nc(N)nc(CC#N)n2)C(C)(C)C1 | > 100 | > 100 | > 100 | > 100 | > 100 | > 100 |  | > 100 | > 100 | > 100
C/C=C/C1OC(O)(C(C)C(O)[C@H](C)C2OC(=O)/C(OC)=C/C(C)=C/[C@@H](C)[C@@H](O)[C@@H](C)C(O)C(C)C/C(C)=C/C=C/C2OC)C[C@@H](OC2CC(O)C(OC(N)=O)C(C)O2)C1C (stereo partly specified) | 1.78 | 8.91 | 1.54 | 0.625 | 13.3 | < 0.01 | 3.14 | < 0.01 |  | 27.1
